From patent US10683290B2, “Tricyclic compounds as anticancer agents” (BRISTOL-MYERS SQUIBB COMPANY, priority 2015, dated 2020)
pIC50: −log10 of the molar value.

Each molecule was assayed against BRD4 (Homo sapiens, UniProt O60885) (assay: biochemical). Details: one of the FRET assays described; read-out: FRET BRD4 IC50.
Type: binding

SMILES | pIC50
Cc1noc(C)c1-c1ccc2c3ncc(C(C)(C)O)cc3n([C@H](c3ccccc3)C3CCOCC3)c2c1F [Example 17, 2-[7-(Dimethyl-1,2-oxazol-4-yl)-6-fluoro-5-[(S)-oxan-4-yl(phenyl)methyl]-5H-pyrido[3,2-b]indol-3-yl]propan-2-ol] | > 8.30
Cc1noc(C)c1-c1cc2c(cc1F)c1ncc(C(C)(C)O)cc1n2[C@H](c1ccccc1)C1CCOCC1 [Example 18, 2-[7-(dimethyl-1,2-oxazol-4-yl)-8-fluoro-5-[(S)-oxan-4-yl(phenyl)methyl]-5H-pyrido[3,2-b]indol-3-yl]propan-2-ol] | > 8.30
Cc1nnn(C)c1-c1cc2c(cc1F)c1ncc(C(C)(C)O)cc1n2[C@H](c1ccccc1)C1CCOCC1 [Example 19, 2-[7-(Dimethyl-1H-1,2,3-triazol-5-yl)-8-fluoro-5-[(S)-oxan-4-yl(phenyl)methyl]-5H-pyrido[3,2-b]indol-3-yl]propan-2-ol] | > 5.82
Cc1nnn(C)c1-c1ccc2c3ncc(C(C)(C)O)cc3n([C@H](c3ccccc3)C3CCOCC3)c2c1F [Example 20, 2-[7-(Dimethyl-1H-1,2,3-triazol-5-yl)-6-fluoro-5-[(S)-oxan-4-yl(phenyl)methyl]-5H-pyrido[3,2-b]indol-3-yl]propan-2-ol] | > 8.30
Cc1nnn(C)c1-c1cc2c(cc1F)c1ncc(C(C)(C)O)cc1n2[C@H](c1ccccc1F)C1CCOCC1 [Example 21, 2-[7-(Dimethyl-1H-1,2,3-triazol-5-yl)-8-fluoro-5-[(S)-(2-fluorophenyl)(oxan-4-yl)methyl]-5H-pyrido[3,2-b]indol-3-yl]propan-2-ol] | > 9.00
[2H]C([2H])([2H])c1nnn(C)c1-c1cc2c(cc1F)c1ncc(C(C)(C)O)cc1n2[C@H](c1ccccc1F)C1CCOCC1 [Example 22, 2-{8-Fluoro-5-[(S)-(2-fluorophenyl)(oxan-4-yl)methyl]-7-[4-(^2H3)methyl-1-methyl-1H-1,2,3-triazol-5-yl]-5H-pyrido[3,2-b]indol-3-yl}propan-2-ol] | > 9.00
Cc1nnn(C)c1-c1cc2c(cc1F)c1ncc(S(C)(=O)=O)cc1n2[C@H](c1ccccc1F)C1CCOCC1 [Example 25, 5-{8-Fluoro-5-[(S)-(2-fluorophenyl)(oxan-4-yl)methyl]-3-methanesulfonyl-5H-pyrido[3,2-b]indol-7-yl}-1,4-dimethyl-1H-1,2,3-triazole] | > 9.00
Cc1nnn(C)c1-c1ccc2c3ncc(S(C)(=O)=O)cc3n([C@H](c3ccccc3)C3CCOCC3)c2c1 [Example 26, 5-{3-Methanesulfonyl-5-[(S)-oxan-4-yl(phenyl)methyl]-5H-pyrido[3,2-b]indol-7-yl}-1,4-dimethyl-1H-1,2,3-triazole] | > 8.30
[2H]C([2H])([2H])c1nnn(C)c1-c1ccc2c3ncc(S(C)(=O)=O)cc3n([C@H](c3ccccc3)C3CCOCC3)c2c1 [Example 27, 5-{3-Methanesulfonyl-5-[(S)-oxan-4-yl(phenyl)methyl]-5H-pyrido[3,2-b]indol-7-yl}-4-(^2H3)methyl-1-methyl-1H-1,2,3-triazole] | > 8.30
[2H]C([2H])([2H])c1nnn(C)c1-c1cc2c(cc1F)c1ncc(S(C)(=O)=O)cc1n2[C@H](c1ccccc1F)C1CCOCC1 [Example 28, 5-{8-Fluoro-5-[(S)-(2-fluorophenyl)(oxan-4-yl)methyl]-3-methanesulfonyl-5H-pyrido[3,2-b]indol-7-yl}-4-(^2H3)methyl-1-methyl-1H-1,2,3-triazole] | > 9.00
Cc1nnn(C)c1-c1ccc2c3ncc(C(=O)O)cc3n([C@H](c3ccccc3F)C3CCOCC3)c2c1 [Example 29, 7-(Dimethyl-1H-1,2,3-triazol-5-yl)-5-[(S)-(2-fluorophenyl)(oxan-4-yl)methyl]-5H-pyrido[3,2-b]indole-3-carboxylic acid] | > 8.30
[2H]C([2H])([2H])c1nnn(C)c1-c1cc2c(cc1F)c1ncc(C(C)(C)O)cc1n2C(c1ncccc1F)C1CCOCC1 (stereo not shown) [Example 30, 2-{8-Fluoro-5-[(3-fluoropyridin-2-yl)(oxan-4-yl)methyl]-7-[4-(^2H3)methyl-1-methyl-1H-1,2,3-triazol-5-yl]-5H-pyrido[3,2-b]indol-3-yl}propan-2-ol] | > 9.00
[2H]C([2H])([2H])c1nnn(C)c1-c1cc2c(cc1F)c1ncc(C(C)(C)O)cc1n2C(c1ncccc1F)C1CCOCC1 (stereo not shown) [Example 31, 2-{8-Fluoro-5-[(3-fluoropyridin-2-yl)(oxan-4-yl)methyl]-7-[4-(^2H3)methyl-1-methyl-1H-1,2,3-triazol-5-yl]-5H-pyrido[3,2-b]indol-3-yl}propan-2-ol] | > 8.30
[2H]C([2H])([2H])c1nnn(C)c1-c1cc2c(cc1F)c1ncc(C(C)(C)O)cc1n2[C@H](c1ccccc1)C1CCOCC1 [Example 32, 2-{8-Fluoro-7-[4-(^2H3)methyl-1-methyl-1H-1,2,3-triazol-5-yl]-5-[(S)-(oxan-4-yl)(phenyl)methyl]-5H-pyrido[3,2-b]indol-3-yl}propan-2-ol] | > 9.00
[2H]C([2H])([2H])c1onc(C)c1-c1cc2c(cc1F)c1ncc(C(C)(C)O)cc1n2[C@H](c1ccccc1)C1CCOCC1 [Example 33, 2-{8-Fluoro-7-[5-(^2H3)methyl-3-methyl-1,2-oxazol-4-yl]-5-[(S)-(oxan-4-yl)(phenyl)methyl]-5H-pyrido[3,2-b]indol-3-yl}propan-2-ol] | > 9.00
[2H]C([2H])([2H])c1nnn(C)c1-c1cc2c(cc1F)c1ncc(C(C)(C)O)cc1n2C(c1cc(C)on1)C1CCOCC1 (stereo not shown) [Example 34, 2-{8-Fluoro-5-[(5-methyl-1,2-oxazol-3-yl)(oxan-4-yl)methyl]-7-[4-(^2H3)methyl-1-methyl-1H-1,2,3-triazol-5-yl]-5H-pyrido[3,2-b]indol-3-yl}propan-2-ol] | > 9.00
[2H]C([2H])([2H])c1nnn(C)c1-c1cc2c(cc1F)c1ncc(C(C)(C)O)cc1n2C(c1cc(C)on1)C1CCOCC1 (stereo not shown) [Example 35, 2-{8-Fluoro-5-[(5-methyl-1,2-oxazol-3-yl)(oxan-4-yl)methyl]-7-[4-(^2H3)methyl-1-methyl-1H-1,2,3-triazol-5-yl]-5H-pyrido[3,2-b]indol-3-yl}propan-2-ol] | > 5.82
[2H]C([2H])([2H])c1nnn(C)c1-c1cc2c(cc1Cl)c1ncc(C(C)(C)O)cc1n2[C@H](c1ccccc1)C1CCOCC1 [Example 77, 2-{8-chloro-7-[4-(^2H3)methyl-1-methyl-1H-1,2,3-triazol-5-yl]-5-[(S)-oxan-4-yl(phenyl)methyl]-5H-pyrido[3,2-b]indol-3-yl}propan-2-ol] | > 5.82

Same assay, conditions: read-out: FRET BRD4 IC50

SMILES | pIC50
[2H]C([2H])([2H])c1nnn(C)c1-c1ccc2c3ncc(C(C)(C)O)cc3n([C@H](c3ccccc3)C3CCOCC3)c2c1 [Example 16, 2-{7-[4-(^2H3)Methyl-1-methyl-1H-1,2,3-triazol-5-yl]-5-[(S)-oxan-4-yl(phenyl)methyl]-5H-pyrido[3,2-b]indol-3-yl}propan-2-ol] | > 8.30
